# Target: T1, DYRK1/DYRK1A (Homo sapiens, UniProt Q13627)
# T1 construct: purchased Reaction Biology Corp
# Experiment: DYRK1/DYRK1A IC50 assay (Reaction Biology Corp.)
# Type: biochemical
# Details: DYRK1/DYRK1A assay from Reaction Biology Corp.
row,IC50 [nM],SMILES
1,1.74,"O=c1[nH]c2ccc(-c3cncc(NCc4ccco4)c3)cc2[nH]1 [Compound 49a, 5-(5-((Furan-2-ylmethyl)amino)pyridin-3-yl)-1H-benzo[d]imidazol-2(3H)-one]"
2,0.48,"O=c1[nH]c2ccc(-c3cncc(NCc4cccs4)c3)cc2[nH]1 [Compound 49b, 5-(5-((Thiophen-2-ylmethyl)amino)pyridin-3-yl)-1H-benzo[d]imidazol-2(3H)-one]"
3,4.91,"O=c1[nH]c2ccc(-c3cncc(NCc4ncc[nH]4)c3)cc2[nH]1 [Compound 49c, 5-(5-(((1H-Imidazol-2-yl)methyl)amino)pyridin-3-yl)-1H-benzo[d]imidazol-2(3H)-one]"
4,3.27,"O=c1[nH]c2ccc(-c3cncc(NCc4cc[nH]n4)c3)cc2[nH]1 [Compound 49e, 5-(5-(((1H-Pyrazol-3-yl)methyl)amino)pyridin-3-yl)-1H-benzo[d]imidazol-2(3H)-one]"
5,4.03,"O=c1[nH]c2ccc(-c3cncc(NCc4ncco4)c3)cc2[nH]1 [Compound 49f, 5-(5-((Oxazol-2-ylmethyl)amino)pyridin-3-yl)-1H-benzo[d]imidazol-2(3H)-one]"
6,3.67,"O=c1[nH]c2ccc(-c3cncc(CNc4ccccc4F)c3)cc2[nH]1 [Compound 52a, 5-(5-(((2-Fluorophenyl)amino)methyl)pyridin-3-yl)-1H-benzo[d]imidazol-2(3H)-one]"
7,1.31,"O=c1[nH]c2ccc(-c3cncc(CNc4cccc(F)c4)c3)cc2[nH]1 [Compound 52b, 5-(5-(((3-Fluorophenyl)amino)methyl)pyridin-3-yl)-1H-benzo[d]imidazol-2(3H)-one]"
8,6.11,"O=c1[nH]c2ccc(-c3cncc(CNc4ccc(F)cc4)c3)cc2[nH]1 [Compound 52c, 5-(5-(((4-Fluorophenyl)amino)methyl)pyridin-3-yl)-1H-benzo[d]imidazol-2(3H)-one]"
9,5.05,"O=c1[nH]c2ccc(-c3cncc(CNc4ccccc4Cl)c3)cc2[nH]1 [Compound 52d, 5-(5-(((2-Chlorophenyl)amino)methyl)pyridin-3-yl)-1H-benzo[d]imidazol-2(3H)-one]"
10,2.72,"COc1ccccc1NCc1cncc(-c2ccc3[nH]c(=O)[nH]c3c2)c1 [Compound 52g, 5-(5-(((2-Methoxyphenyl)amino)methyl)pyridin-3-yl)-1H-benzo[d]imidazol-2(3H)-one]"
11,2.26,"COc1cccc(NCc2cncc(-c3ccc4[nH]c(=O)[nH]c4c3)c2)c1 [Compound 52h, 5-(5-(((3-Methoxyphenyl)amino)methyl)pyridin-3-yl)-1H-benzo[d]imidazol-2(3H)-one]"
12,2.2,"COc1ccc(NCc2cncc(-c3ccc4[nH]c(=O)[nH]c4c3)c2)cc1 [Compound 52i, 5-(5-(((4-Methoxyphenyl)amino)methyl)pyridin-3-yl)-1H-benzo[d]imidazol-2(3H)-one]"
13,1.41,"CCn1c(=O)[nH]c2ccc(-c3cncc(NCc4ccccc4)c3)cc21 [Compound 61a, 6-(5-(Benzylamino)pyridin-3-yl)-1-ethyl-1H-benzo[d]imidazol-2(3H)-one]"
14,13.8,"CC(C)n1c(=O)[nH]c2ccc(-c3cncc(NCc4ccccc4)c3)cc21 [Compound 61b, 6-(5-(Benzylamino)pyridin-3-yl)-1-isopropyl-1H-benzo[d]imidazol-2(3H)-one]"
15,3.25,"O=c1[nH]c2ccc(-c3cncc(NCc4ccccc4)c3)cc2n1C1CC1 [Compound 61c, 6-(5-(Benzylamino)pyridin-3-yl)-1-cyclopropyl-1H-benzo[d]imidazol-2(3H)-one]"
16,24,"O=c1[nH]c2ccc(-c3cncc(NCc4ccccc4)c3)cc2n1C1CCCC1 [Compound 61d, 6-(5-(Benzylamino)pyridin-3-yl)-1-cyclopentyl-1H-benzo[d]imidazol-2(3H)-one]"
17,3.8,"O=c1[nH]c2ccc(-c3cncc(NCc4ccccc4)c3)cc2n1-c1ccccc1 [Compound 61e, 6-(5-(Benzylamino)pyridin-3-yl)-1-phenyl-1H-benzo[d]imidazol-2(3H)-one]"

# Reference: patent publication US20220162182A1, “KINASE INHIBITOR COMPOUNDS AND COMPOSITIONS AND METHODS OF USE” (ICAHN SCHOOL OF MEDICINE AT MOUNT SINAI, priority 2018, published 2022)
